The record followed here is US10138255B2, “Piperazine derivatives as HIV protease inhibitors” (Merck Sharp & Dohme Corp., priority 2014, dated 2018).

The subject of this experiment is HIV-1 (H9IIIB strain). The experiment can be described thus: Cell-Based HIV Infection Assay Using a Reporter (MT4-GFP cells). The note with it: Human immunodeficiency virus 1, inflection point (IP) of viral growth inhibition; MT4-GFP cells infected with HIV-1 H9IIIB; 50% normal human serum; mean of at least two independent experiments; read-out: Cell Based IP (50% NHS). In outline:
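Inflection point from a 4-parameter curve of % viral growth inhibition, normalised to DMSO and triple-drug controls, using the 48 h/24 h ratio of GFP-positive cells (R0). MT4-GFP cells pre-infected 24 h with HIV-1 H9IIIB at low MOI; compounds tested in 50% normal human serum, 0.4% DMSO; mean of ≥2 experiments.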
Take `COC(=O)N[C@H](C(=O)Nc1cccc(F)c1CCC1CNC2CCCS(=O)(=O)N1C2)[C@H](CCC1CCCCO1)c1ccc(Cl)cc1` (stereo partly drawn) [Example 153, methyl [(1S,2R)-2-(4-chlorophenyl)-1-({2-[2-(2,2-dioxido-2-thia-1,7-diazabicyclo[4.3.1]dec-9-yl)ethyl]-3-fluorophenyl}carbamoyl)-4-(tetrahydro-2H-pyran-2-yl)butyl]carbamate]: the EC50 turned out to be 9.7 nM.

For the compound `CC1(C)C[C@@H]([C@H](c2ccc(F)cc2)[C@H](N)C(=O)N[C@H]2CCCC[C@@H]2CC[C@H]2CN[C@@H]3CCCS(=O)(=O)N2C3)CCO1` [Example 148, (βR)-β-[(4S)-2,2-dimethyhetrahydro-2H-pyran-4-yl]-N-[(1S,2R)-2-{2-[(6R,9S)-2,2-dioxido-2-thia-1,7-diazabicyclo[4.3.1]dec-9-yl]ethyl}cyclohexyl]-4-fluoro-L-phenylalaninamide], the EC50 was 160 nM.

`COC(=O)N[C@H](C(=O)Nc1cccc(F)c1CC[C@H]1CN[C@@H]2CCCS(=O)(=O)N1C2)[C@@H](c1ccc(Cl)cc1)[C@H]1CCO[C@@H](CC(F)(F)F)C1` [Example 8, Methyl ((1R,2S)-1-(4-chlorophenyl)-3-((2-(2-((6R,9S)-2,2-dioxido-2-thia-1,7-diazabicyclo[4.3.1]decan-9-yl)ethyl)-3-fluorophenyl)amino)-3-oxo-1-((2R,4S)-2-(2,2,2-trifluoroethyl)tetrahydro-2H-pyran-4-yl)propan-2-yl)carbamate]: the EC50 was 8.7 nM. The figure for `N[C@H](C(=O)Nc1cccc(F)c1CC[C@H]1CN[C@@H]2CCCS(=O)(=O)N1C2)[C@@H](c1ccc(F)cc1)c1cnc(C(F)(F)F)nc1` [Example 132, (βS)-N-(2-{2-[(6R,9S)-2,2-dioxido-2-thia-1,7-diazabicyclo[4.3.1]dec-9-yl]ethyl)-3-fluorophenyl)-4-fluoro-β-[2-(trifluoromethyl)pyrimidin-5-yl]-L-phenylalaninamide] is 15 nM. The figure for `Cn1nc(C(F)(F)F)cc1[C@H](c1ccc(Cl)cc1)[C@H](N)C(=O)Nc1cccc(F)c1CC[C@H]1CN[C@@H]2CCCS(=O)(=O)N1C2` [Example 261, (βR)-4-chloro-N-(2-{2-[(6R,9S)-2,2-dioxido-2-thia-1,7-diazabicyclo[4.3.1]dec-9-yl]ethyl}-3-fluorophenyl)-β-[1-methyl-3-(trifluoromethyl)-1H-pyrazol-5-yl]-L-phenylalaninamide] is 8.7 nM; for `CS(=O)(=O)N1CCC([C@H](c2ccc(F)cc2)[C@H](N)C(=O)Nc2cccc(F)c2CC[C@H]2CN[C@@H]3CCCS(=O)(=O)N2C3)CC1` [Example 186, (βR)-N-(2-{2-[(6R,9S)-2,2-dioxido-2-thia-1,7-diazabicyclo[4.3.1]dec-9-yl]ethyl}-3-fluorophenyl)-4-fluoro-β-[1-(methylsulfonyl)piperidin-4-yl]-L-phenylalaninamide] it is 33 nM. Regarding `CCC(CC)[C@H](c1ccc(Cl)cc1)[C@H](N)C(=O)Nc1cncc(F)c1CC[C@H]1CN[C@@H]2CCCS(=O)(=O)N1C2` [Example 242, (2S,3R)-2-amino-3-(4-chlorophenyl)-N-(4-(2-((6R,9S)-2,2-dioxido-2-thia-1,7-diazabicyclo[4.3.1]decan-9-yl)ethyl)-5-fluoropyridin-3-yl)-4-ethylhexanamide], the EC50 came to 17 nM. The figure for `COC(=O)N[C@H](C(=O)Nc1cccc(F)c1CCC1CNC2CCCS(=O)(=O)N1C2)[C@@H](c1ccc(F)cc1)c1cccc(C(F)(F)F)c1` (stereo partly drawn) [Example 63, methyl [(1S)-2-({2-[2-(2,2-dioxido-2-thia-1,7-diazabicyclo[4.3.1]dec-9-yl)ethyl]-3-fluorophenyl}amino)-1-{(S)-(4-fluorophenyl)[3-(trifluoromethyl)phenyl]methyl}-2-oxoethyl]carbamate] is 14 nM.
